From ChEMBL document CHEMBL3390848, “Affinity selection and sequence-activity relationships of HIV-1 membrane fusion inhibitors directed at the drug-resistant variants” (Medchemcomm, 2010)
pEC50: −log10 of the molar value. Residues, ends and D or L forms follow the SMILES beside them.

Columns and labels:
[1] = system: Human immunodeficiency virus 1; assay: Binding affinity to HIV1 His-tagged N-terminal heptad repeat of envelope glycoprotein gp41 assessed as recovery of N36-drug complex at 10 uM after 2 hrs by LC-MS analysis
[2] = system: Human immunodeficiency virus 1; assay: Binding affinity to HIV1 His-tagged N-terminal heptad repeat of envelope glycoprotein gp41 assessed as recovery of N36-drug complex at 6 uM after 2 hrs by LC-MS analysis
[3] = system: Human immunodeficiency virus 1; assay: Binding affinity to HIV1 His-tagged N-terminal heptad repeat of envelope glycoprotein gp41 assessed as recovery of N36-drug complex at 1 uM after 2 hrs by LC-MS analysis
[4] = system: Human immunodeficiency virus 1; assay: Binding affinity to HIV1 His-tagged N-terminal heptad repeat of envelope glycoprotein gp41 assessed as recovery of N36-drug complex at 0.6 uM after 2 hrs by LC-MS analysis
[5] = system: Human immunodeficiency virus 1; assay: Antiviral activity against HIV1 NL4-3 harboring gp41 D36G mutant infected in human HeLa cells expressing CD4-LTR-beta-gal assessed as inhibition of viral replication after 48 hrs by MAGI assay; format: functional, organism-based
[6] = system: Human immunodeficiency virus 1; assay: Thermal stability of HIV1 envelope glycoprotein gp41 His-tagged N-terminal heptad repeat N36-drug complex assessed as thermal unfolding transition state by measuring molar ellipticity at 4 to 90 degC by circular dichroic spectra analysis

SMILES | Activity [1] [%] | Activity [2] [%] | Activity [3] [%] | Activity [4] [%] | pEC50 [5] | Tm [6] [°C]
CC[C@H](C)[C@H](NC(=O)[C@H](CC(C)C)NC(=O)[C@H](CCC(=O)O)NC(=O)[C@H](CCC(=O)O)NC(=O)[C@@H](NC(=O)[C@H](CCCCN)NC(=O)[C@H](CCCCN)NC(=O)[C@@H](NC(=O)[C@H](Cc1ccc(O)cc1)NC(=O)[C@H](CCC(=O)O)NC(=O)[C@H](CCC(=O)O)NC(=O)[C@@H](NC(=O)[C@H](CCCCN)NC(=O)[C@H](CCCCN)NC(=O)[C@H](CC(=O)O)NC(=O)[C@H](Cc1c[nH]c2ccccc12)NC(=O)[C@H](CCC(=O)O)NC(=O)[C@H](CCC(=O)O)NC(=O)[C@H](Cc1c[nH]c2ccccc12)NC(C)=O)[C@@H](C)CC)[C@@H](C)O)[C@@H](C)CC)C(=O)N[C@@H](CCCCN)C(=O)N[C@@H](CCCCN)C(=O)N[C@@H](Cc1cnc[nH]1)C(=O)N[C@@H](CCC(=O)O)C(=O)N[C@@H](CCC(=O)O)C(=O)N[C@@H](CCC(N)=O)C(=O)N[C@@H](CCC(N)=O)C(=O)N[C@@H](CCCCN)C(=O)N[C@@H](CCCCN)C(=O)N[C@@H](CC(N)=O)C(=O)N[C@@H](CCC(=O)O)C(=O)N[C@@H](CCC(=O)O)C(=O)N[C@@H](CCC(=O)O)C(=O)N[C@@H](CC(C)C)C(=O)N[C@@H](CCCCN)C(=O)N[C@@H](CCCCN)C(N)=O (Ac-WEEWDKKIEEYTKKIEELIKKHEEQQKKNEEELKK-NH2) | 0.9 | 0.6 | 2.4 | 5.7 | 8.72 | 62.9
CC[C@H](C)[C@H](NC(=O)[C@H](CCCCN)NC(=O)[C@H](CCCCN)NC(=O)[C@H](CC(=O)O)NC(=O)[C@H](Cc1c[nH]c2ccccc12)NC(=O)[C@H](CCC(=O)O)NC(=O)[C@H](CCC(=O)O)NC(=O)[C@H](Cc1c[nH]c2ccccc12)NC(C)=O)C(=O)N[C@@H](CCC(=O)O)C(=O)N[C@@H](CCC(=O)O)C(=O)N[C@@H](Cc1ccc(O)cc1)C(=O)N[C@H](C(=O)N[C@@H](CCCCN)C(=O)N[C@@H](CCCCN)C(=O)N[C@H](C(=O)N[C@@H](CCC(=O)O)C(=O)N[C@@H](CCC(=O)O)C(=O)N[C@@H](CC(C)C)C(=O)N[C@H](C(=O)N[C@@H](CCCCN)C(=O)N[C@@H](CCCCN)C(=O)N[C@H](C(=O)N[C@@H](CCC(=O)O)C(=O)N[C@@H](CCC(=O)O)C(=O)N[C@@H](CCC(N)=O)C(=O)N[C@@H](CCC(N)=O)C(=O)N[C@@H](CCCCN)C(=O)N[C@@H](CCCCN)C(=O)N[C@@H](CC(N)=O)C(=O)N[C@@H](CCC(=O)O)C(=O)N[C@@H](CCC(=O)O)C(=O)N[C@@H](CCC(=O)O)C(=O)N[C@@H](CC(C)C)C(=O)N[C@@H](CCCCN)C(=O)N[C@@H](CCCCN)C(N)=O)[C@@H](C)CC)[C@@H](C)CC)[C@@H](C)CC)[C@@H](C)O (Ac-WEEWDKKIEEYTKKIEELIKKIEEQQKKNEEELKK-NH2) | 4.7 | 7.6 | 11.3 | 6.9 | 8.89 | 84.6
CC[C@H](C)[C@H](NC(=O)[C@H](CC(C)C)NC(=O)[C@H](CCC(=O)O)NC(=O)[C@H](CCC(=O)O)NC(=O)[C@@H](NC(=O)[C@H](CCCCN)NC(=O)[C@H](CCCCN)NC(=O)[C@@H](NC(=O)[C@H](Cc1ccc(O)cc1)NC(=O)[C@H](CCC(=O)O)NC(=O)[C@H](CCC(=O)O)NC(=O)[C@@H](NC(=O)[C@H](CCCCN)NC(=O)[C@H](CCCCN)NC(=O)[C@H](CC(=O)O)NC(=O)[C@H](Cc1c[nH]c2ccccc12)NC(=O)[C@H](CCC(=O)O)NC(=O)[C@H](CCC(=O)O)NC(=O)[C@H](Cc1c[nH]c2ccccc12)NC(C)=O)[C@@H](C)CC)[C@@H](C)O)[C@@H](C)CC)C(=O)N[C@@H](CCCCN)C(=O)N[C@@H](CCCCN)C(=O)N[C@@H](CCCCN)C(=O)N[C@@H](CCC(=O)O)C(=O)N[C@@H](CCC(=O)O)C(=O)N[C@@H](CCC(N)=O)C(=O)N[C@@H](CCC(N)=O)C(=O)N[C@@H](CCCCN)C(=O)N[C@@H](CCCCN)C(=O)N[C@@H](CC(N)=O)C(=O)N[C@@H](CCC(=O)O)C(=O)N[C@@H](CCC(=O)O)C(=O)N[C@@H](CCC(=O)O)C(=O)N[C@@H](CC(C)C)C(=O)N[C@@H](CCCCN)C(=O)N[C@@H](CCCCN)C(N)=O (Ac-WEEWDKKIEEYTKKIEELIKKKEEQQKKNEEELKK-NH2) | 0.2 | 0.1 | 0 | 3.6 | 8.09 | 53.5
